Assays:
[1] = test system: oil field isolated anaerobic consortium, mainly SRB; assay: Biocidal efficacy (MBC) against anaerobic bacteria in contaminated salt solution; assay type: cell-based; settings: 40° C., 24 hour, 10^6 to 10^7 CFU/mL
Procedure: Inside an anaerobic chamber (Bactron anaerobic chamber), a deaerated sterile salt solution (3.1183 g of NaCl, 1.3082 mg of NaHCO3, 47.70 mg of KCl, 72.00 mg of CaCl2, 54.49 mg of MgSO4, 172.28 mg of Na2SO4, 43.92 mg of Na2CO3 in 1 L water) was contaminated with an oil field isolated anaerobic consortium, mainly SRB, at final bacterial concentrations of 10^6 to 10^7 CFU/mL. The aliquots of this contaminated water were then treated with BIT, Tris Nitro, or the BIT/Tris Nitro combinations at different active concentration levels. After the mixtures were incubated at 40° C. for 24 hour, the biocidal efficacy was determined by minimum tested biocide concentration for bacteria kill in the aliquots (MBC). Table 1 summarizes the efficacy of each biocide and their blends, and the Synergy Index* of each combination.

[2] = test system: Psedomonas aeruginosa ATCC 10145 and Staphylococcus aureus ATCC 6538; assay: Biocidal efficacy (MBC, complete kill) against aerobic bacteria in contaminated NaCl solution; assay type: cell-based; settings: 37° C., 24 hour, ~10^6 CFU/ml
Procedure: A sterile NaCl solution (0.85%) was contaminated with Psedomonas aeruginosa ATCC 10145 and Staphylococcus aureus ATCC 6538 at final bacterial concentration of ˜10^6 CFU/ml. The aliquots of this contaminated water were then treated with BIT, Tris Nitro, or the BIT/Tris Nitro combination at different active concentration levels. […] Table 2 summarizes the efficacy of each biocide and their blends, and the Synergy Index of each combination.

Structure (SMILES)	MBC (active ppm) Tris Nitro ([1]; concentration of Tris Nitro at minimum tested biocide concentration for bacteria kill) [active ppm]	Dosage required for complete kill (active ppm) Tris Nitro ([2]; concentration of Tris Nitro at MBC) [active ppm]	MBC (active ppm) BIT ([1]; concentration of BIT at minimum tested biocide concentration for bacteria kill) [active ppm]	Dosage required for complete kill (active ppm) BIT ([2]; concentration of BIT at MBC) [active ppm]
O=[N+]([O-])C(CO)(CO)CO [0:1, tris(hydroxymethyl)nitromethane]	>100	25.7		
O=c1[nH]sc2ccccc12 [1:0, 1,2-benzisothiazolin-3-one]			17.3	>25
